Here are results for 14 compounds from US9278943B2, “Methods of using as analgesics 1-benzyl-1-hydroxy-2, 3-diamino-propyl amines, 3-benzyl-3-hydroxy-2-amino-propionic acid amides and related compounds” (Exonhit Therapeutics SA, priority 2005, dated 2016).

Where a name gives a salt, the structure may show the parent alone. Read-outs that look alike come from different tables or passages of the source.

The subject of data set [1] is tactile allodynia in the rat Chung model (L5/L6 spinal nerve ligation). Put plainly: Chung model: reversal of tactile allodynia (von Frey hairs) after spinal nerve ligation. The class given is in vivo. To be noted: read-out: Peak % Pain reversal: time post dose; for inhibition in vivo at 0.3 mg/kg: 300 μg/kg IP; for inhibition in vivo at 1 mg/kg: 1000 μg/kg IP. From the text: An art-accepted model or assay for measuring an analgesic effect of a compound in chronic pain (in particular peripheral neuropathy) is the model known as Kim and Chung 1992, Pain […], pp 355-363 (Chung model). This model involves the surgical ligation of the L5 (and optionally the L6) spinal nerves on one side in experimental animals. Rats recovering from the surgery gain weight and display a level of general activity similar to that of normal rats. However, these rats develop abnormalities of the foot, wherein the hindpaw is moderately everted and the toes are held together. More importantly, the hindpaw on the side affected by the surgery appears to become sensitive to low-threshold mechanical stimuli and will perceive pain instead of the faint sensation of touch. This sensitivity to normally non-painful touch, called “tactile allodynia”, develops within the first week after surgery and lasts for at least two months. The allodynia response includes lifting the affected hindpaw to escape from the stimulus, licking the paw and holding it in the air for many seconds. None of these responses is normally seen in the control group.
To produce the tactile allodynia, rats are anesthetized before surgery. The surgical site is shaved and prepared either with betadine or Novacaine. Incision is made from the thoracic vertebra Xlll down toward the sacrum. Muscle tissue is separated from the spinal vertebra (left side) at the L4-S2 levels. The L6 vertebra is located and the transverse process is carefully removed with a small rongeur to expose the L4-L6 spinal nerves. The L5 and L6 spinal nerves are isolated and tightly ligated with 6-0 silk thread. The same procedure is done on the right side as a control, except no ligation of the spinal nerves is performed.
After a complete hemostasis is confirmed, the wounds are sutured. A small amount of antibiotic ointment is applied to the incised area, and the rat is transferred to the recovery plastic cage under a regulated heat-temperature lamp.
On the day of the experiment, at least seven days after the surgery, typically six rats per test group are administered the test drugs by intraperitoneal (i.p.) injection or oral gavage (p.o.). For i.p. administration, the compounds are formulated in H2O and given in a volume of 1 ml/kg body weight by injecting into the intraperitoneal cavity. For p.o. administration, the compounds are formulated in H2O and given in a volume of 1 ml/kg body weight using an 18-gauge, 3 inch gavage needle that is slowly inserted through the esophagus into the stomach.
Tactile allodynia is assessed via von Frey hairs, which are a series of fine hairs with incremental differences in stiffness. Rats are placed in a plastic cage with a wire mesh bottom and allowed to acclimate for approximately 30 minutes. To establish the pre-drug baseline, the von Frey hairs are applied perpendicularly through the mesh to the mid-plantar region of the rats' hindpaw with sufficient force to cause slight buckling and held for 6-8 seconds. The applied force has been calculated to range from 0.41 to 15.1 grams. If the paw is sharply withdrawn, it is considered a positive response. A normal animal will not respond to stimuli in this range, but a surgically ligated paw will be withdrawn in response to a 1-2 gram hair. The 50% paw withdrawal threshold is determined using the method of Dixon, W. J., Ann. Rev. Pharmacol. Toxicol. 20:441-462 (1980) hereby incorporated by reference. Tactile allodynia is measured prior to and 15, 30, and 60 minutes after drug administration. The post-drug threshold is compared to the pre-drug threshold and the percent reversal of tactile sensitivity is calculated based on a normal threshold of 15.1 grams.
Table 1 below indicates the degree of pain reversal obtained in the Chung model with exemplary compounds used in accordance with the invention. […]

Data set [2] has as its system transient forebrain ischemia in rats. To be noted: treatment after transient forebrain ischemia in rats; 8-arm maze task; cited from earlier work.
The target in another data set is T1, GlcCer synthase (GCS) (Homo sapiens, UniProt Q16739).
T1 sequence (Q16739 1-394): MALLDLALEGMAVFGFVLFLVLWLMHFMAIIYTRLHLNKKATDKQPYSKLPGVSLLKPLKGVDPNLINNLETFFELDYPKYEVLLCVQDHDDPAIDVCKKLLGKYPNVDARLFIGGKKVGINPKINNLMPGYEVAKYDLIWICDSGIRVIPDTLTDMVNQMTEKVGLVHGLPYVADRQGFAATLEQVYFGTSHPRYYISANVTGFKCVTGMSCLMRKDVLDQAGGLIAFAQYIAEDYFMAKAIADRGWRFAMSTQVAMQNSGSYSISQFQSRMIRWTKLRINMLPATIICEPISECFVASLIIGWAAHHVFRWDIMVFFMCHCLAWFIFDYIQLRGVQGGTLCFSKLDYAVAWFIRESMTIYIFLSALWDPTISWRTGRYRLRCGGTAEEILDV
Conditions: cited from earlier work.

Data set [3] relates to glycosphingolipid biosynthesis. To be noted: via inhibition of glycosphingolipid biosynthesis; cited from earlier work.
The next data set relates to synaptic function. To be noted: cited from earlier work.
Where [4] appears, read: 1 h, 30 μg/kg IP, peak at 60 min post dose.

`N[C@@H](C(=O)N1CCCC1)[C@@H](O)c1ccc(Cl)c(Cl)c1` (racemic) [Compound 15, DL-threo-2-Amino-3-(3,4-dichlorophenyl)-3-hydroxy-1-(pyrrolidin-1-yl)propan-1-one hydrochloride]: the inhibition in vivo at 0.3 mg/kg in data set [1] (1 h, peak at 60 min post dose) worked out at 42%. Regarding `CCCCCCCCCC(=O)N[C@@H](CN1CCOCC1)[C@@H](O)c1ccccc1` [L-threo-PDMP, (1S,2S)-1-phenyl-2-decanoylamino-3-morpholino-1-propanol, reference compound], in data set [1] (0.5 h, 30 μg/kg PO, peak at 30 min post dose), the inhibition in vivo at 0.03 mg/kg is 100%. Also, the “deficit of a well learned spatial memory” value in data set [2] is listed as “ameliorated the deficit”. On to `N[C@@H](C(=O)N1CCCC1)[C@@H](O)c1ccccc1` (racemic) [Compound 16, DL-threo-2-Amino-3-hydroxy-3-phenyl-1-(pyrrolidin-1-yl)propan-1-one hydrochloride], for which the inhibition in vivo at 0.3 mg/kg in data set [1] (1 h, peak at 60 min post dose) turned out to be 93%. As for `CCCCCCCCCCCCCCCC(=O)N[C@H](CN1CCCC1)[C@H](O)c1ccc(O)cc1` [D-threo-4′-hydroxy-P4], the “inhibition of GCS” value at GlcCer synthase (GCS) is given as “one of the most potent inhibitor of GCS”. On to `Cc1ccc([C@H](O)[C@@H](N)C(=O)N2CCCC2)cc1` (racemic) [Compound 17, DL-threo-2-Amino-3-hydroxy-1-(pyrrolidin-1-yl)-3-p-tolylpropan-1-one hydrochloride], for which the inhibition in vivo at 0.3 mg/kg in data set [1] (1 h, peak at 60 min post dose) worked out at 100%. Regarding `O=C(N[C@H](CN1CCCC1)[C@H](O)c1ccccc1)OCc1ccccc1` [PBPP, D-threo-1-phenyl-2-benzyloxycarbonylamino-3-pyrrolidino-1-propanol], on GlcCer synthase (GCS), the “inhibition of GCS” value is recorded as “potent GCS inhibitor”. For `C[C@H](N[C@H](CN1CCOCC1)[C@H](O)c1ccccc1)c1ccccc1` [Compound 5, D-threo-2-((S)-1-Phenylethylamino)-3-morpholino-1-phenylpropan-1-ol dihydrochloride], the inhibition in vivo at 0.3 mg/kg in data set [1] (1 h, peak at 60 min post dose) came to 85%. Consider `N[C@@H](CN1CCOCC1)[C@@H](O)c1ccccc1` (as salt: hydrochloride) [Compound 2, L-threo-2-Amino-3-morpholino-1-phenylpropan-1-ol dihydrochloride], for which the melting point (in general, the temperature of the solid-liquid transition) is 166.4 to 170.9 °C.

For `CCCCCCCCCC(=O)N[C@H](CN1CCOCC1)[C@H](O)c1ccccc1` [D-threo-PDMP, 1-Phenyl-2-decanoylamino-3-morpholino-1-propanol], the inhibition in vivo at 1 mg/kg in data set [1] (1 h, peak at 60 min post dose) came to 77%. Further, the antitumor activity result in data set [3] was “has antitumor activity”. In addition, the “effect on synaptic function” value in the data set on synaptic function is reported as “suppresses synaptic function”. For `CCCCCCCCCC(=O)N[C@@H](CN1CCOCC1)[C@H](O)c1ccccc1` (racemic) [DL-erythro-PDMP, 1-Phenyl-2-decanoylamino-3-morpholino-1-propanol, reference compound], the inhibition in vivo at 1 mg/kg in data set [1] (0.5 h, peak at 30 min post dose) came out at 68%. For `CCCCCCCCCC(=O)N[C@@H](CN1CCCC1)[C@@H](O)c1ccc2c(c1)OCCO2` (racemic) [Compound 7, N-(DL-threo-1-(2,3-dihydrobenzol[b][1,4]dioxin-6-yl)-1-hydroxy-3-(pyrrolidin-1-yl)propan-2-yl)decanamide], the inhibition in vivo at 0.001 mg/kg in data set [1] (0.5 h, 1 μg/kg IP, peak at 30 min post dose) was determined as 26%. Regarding `N[C@@H](CN1CCOCC1)[C@@H](O)c1ccccc1` [Compound 2, L-threo-2-Amino-3-morpholino-1-phenylpropan-1-ol dihydrochloride], the inhibition in vivo at 0.1 mg/kg in data set [1] (1 h, 100 μg/kg IP, peak at 60 min post dose) turned out to be 91%.

As to `COc1ccc([C@H](O)[C@@H](N)CN2CCCC2)cc1` (racemic) [Compound 9, DL-threo-2-Amino-1-(4-methoxyphenyl)-3-(pyrrolidin-1-yl)propan-1-ol], the inhibition in vivo at 0.03 mg/kg in data set [1] (setting [4]) was 88%. For `N[C@@H](CN1CCCC1)[C@@H](O)c1ccc2c(c1)OCCO2` (racemic) [Compound 6, DL-threo-2-Amino-1-(2,3-dihydrobenzo[b][1,4]dioxin-6-yl)-3-(pyrrolidin-1-yl)propan-1-ol], the inhibition in vivo at 0.03 mg/kg in data set [1] (setting [4]) is 92%.
